Assay: mn = molality of the nth substance listed, in mol/kg
Details: Liquid, glass piezometer

[I-].[NH4+] [ammonium iodide] + N
mass density [kg/m3]
Details | m1 = 0.867 | m1 = 1.827 | m1 = 3.103 | m1 = 4.856 | m1 = 7.271 | m1 = 11.18 | m1 = 16.46
343.15 K, 10000 kPa | 632.1 | 716.4 | 814.6 | 933.1 | 1062.2 | 1188.9 | 1293.1
343.15 K, 15000 kPa | 638 | 721.7 | 818.9 | 937.1 | 1065.7 | 1192.1 | 1296
343.15 K, 20000 kPa | 643.7 | 726.9 | 823.2 | 941.1 | 1069.2 | 1194.9 | 1298.5
343.15 K, 25000 kPa | 649.4 | 731.9 | 827.6 | 945.1 | 1072.4 | 1197.3 | 1301.4
343.15 K, 30000 kPa | 654.8 | 737 | 831.8 | 949.2 | 1075.2 | 1199.8 | 1303.9
353.15 K, 10000 kPa | 615.5 | 700.1 | 797.7 | 917.8 | 1049.9 | 1177.9 | 1284.9
353.15 K, 15000 kPa | 621.8 | 705.7 | 803 | 922.1 | 1053.5 | 1181 | 1287.4
353.15 K, 20000 kPa | 627.9 | 711.2 | 808.3 | 926.5 | 1056.9 | 1183.7 | 1289.9
353.15 K, 25000 kPa | 634.3 | 716.6 | 813.5 | 931 | 1060.4 | 1186.5 | 1292.4
353.15 K, 30000 kPa | 640.4 | 721.9 | 818.7 | 935.2 | 1063.5 | 1188.9 | 1294.5
363.15 K, 10000 kPa | 593.9 | 680.1 | 780.9 | 903.2 | 1037.1 | 1166.7 | 1274.7
363.15 K, 15000 kPa | 601.7 | 687.2 | 786.3 | 907.9 | 1040.7 | 1169.8 | 1277.2
363.15 K, 20000 kPa | 609.6 | 694.2 | 791.7 | 912.5 | 1044.1 | 1172.8 | 1279.6
363.15 K, 25000 kPa | 617.4 | 701.2 | 797.3 | 916.8 | 1047.4 | 1175.5 | 1281.7
363.15 K, 30000 kPa | 625.2 | 708.4 | 802.8 | 921.1 | 1050.5 | 1177.9 | 1283.9
373.15 K, 10000 kPa | 579.5 | 666.9 | 768.1 | 889.8 | 1026.1 | 1155.3 | 1265.9
373.15 K, 15000 kPa | 587.3 | 674 | 773.7 | 894.4 | 1029.7 | 1158.5 | 1268.6
373.15 K, 20000 kPa | 595.1 | 681 | 779.4 | 898.9 | 1033.2 | 1161.6 | 1271
373.15 K, 25000 kPa | 603.1 | 687.8 | 785.2 | 903.4 | 1036.7 | 1164.3 | 1273.4
373.15 K, 30000 kPa | 610.8 | 694.7 | 790.9 | 907.8 | 1039.9 | 1166.8 | 1275.8
